Source: patent US12064516B2, “Pharmaceutical formulations and uses thereof” (Aldeyra Therapeutics, Inc., priority 2020, dated 2024)
Marks after values point to notes of the source that are not given here.

Test: Pharmacokinetic comparison of ADX-102 (reproxalap) and compound I-1 in rats
Type: in vivo, Sprague-Dawley rats
Settings: SD Rat
[1] = oral gavage 10 mg/kg, CMC/Tween

Vss (intravenous data using captisol formulation): 1.36 L/kg
CL (intravenous data using captisol formulation, in mL/min/kg): 23**
AUC 0-inf/Dose [1]: 64
AUC 0-t/Dose [1]: 60
AUC(0-inf) [1]: 640 ng·h/mL
AUC(0-t) [1]: 595 ng·h/mL
Cmax [1]: 390 ng/mL
Tmax [1]: 0.5 h
t1/2 [1]: 2.27 h
Compound: CC(C)(O)c1nc2ccc(Cl)cc2cc1N [ADX-102]
